How the values were obtained:
Type in all cases: in vivo, human
ADHD subject = experiment: BNA pattern similarity from EEG data of ADHD subjects before and after MPH treatment
From the text: The BNA patterns shown in FIGS. 6A-D are associated subject-specific BNA patterns constructed from EEG data recorded from a particular ADHD subject. The black dots in FIGS. 6A-D show the locations of the EEG electrodes. The color codes in these BNA patterns are the same as defined above. The subject-specific BNA patterns shown in FIGS. 6A-B describe the association of the ADHD subject to a group of untreated ADHD subjects, and the BNA patterns shown in FIGS. 6C-D describe the association of the ADHD subject to a group of ADHD subjects all treated with methylphenidate (MPH). The subject-specific BNA patterns shown in FIGS. 6A and 6C are based on EEG data recorded from the ADHD subject before any treatment, and subject-specific BNA patterns shown in FIGS. 6B and 6D are based on EEG data recorded from the ADHD subject following a treatment with MPH.
The baseline annotated BNA pattern constructed from the group of untreated ADHD subjects, and the baseline annotated BNA pattern constructed from the same group of subjects, but following treatment with MPH are shown in FIGS. 6E and 6F, respectively.
A BNA pattern similarity was calculated for each of the subject-specific BNA patterns shown in FIGS. 6A-D. The calculated similarity corresponding to the BNA pattern of FIG. 6A is 0.73, the calculated similarity corresponding to the BNA pattern of FIG. 6B is 0.19, the calculated similarity corresponding to the BNA pattern of FIG. 6C is 0.56, and the calculated similarity corresponding to the BNA pattern of FIG. 6D is 0.6.
The BNA patterns shown in FIGS. 7A-D were constructed from EEG data recorded from a different ADHD subject, which was also treated with MPH according to the same protocol as described above with respect to the responder subject of FIGS. 6A-D. The black dots in FIGS. 7A-D show the locations of the EEG electrodes, and the color codes in these BNA patterns is the same as defined above. Thus, the subject-specific BNA patterns shown in FIGS. 7A-B describe the association of the ADHD subject to a group of untreated ADHD subjects, and the BNA patterns shown in FIGS. 7C-D describe the association of the ADHD subject to a group of ADHD subjects all treated with methylphenidate (MPH). The subject-specific BNA patterns shown in FIGS. 7A and 7C are based on EEG data recorded from the ADHD subject before any treatment, and subject-specific BNA patterns shown in FIGS. 7B and 7D are based on EEG data recorded from the ADHD subject following a treatment with MPH.

groups of subjects = experiment: Group BNA patterns from EEG data recorded during a working memory test (cue/probe face matching); settings: memorization and retrieval, versus placebo
From the text: FIGS. 10A-H show group BNA patterns constructed from EEG data recorded from two groups of subjects during a working memory test. The black dots in FIGS. 10A-H show the locations of the EEG electrodes, and the color codes in these BNA patterns is the same as defined above. During the test, each subject of the group was asked to memorize an image of a human face (referred to as the “cue”). Two seconds later, the subject was again presented with an image of a human face (referred to as the “probe”) and was asked to determine whether the probe matches the cue.
The BNA patterns of the first group are shown in FIGS. 10A-D. FIGS. 10A and 10B are group BNA patterns constructed following treatment with a placebo (referred to below as placebo A), and FIGS. 10C and 10D are group BNA patterns constructed following treatment with a Scopolamine. The BNA patterns of the second group are shown in FIGS. 10E-H, where FIGS. 10E and 10F are group BNA patterns constructed following treatment with a placebo (referred to below as placebo B), and FIGS. 10G and 10H are BNA patterns constructed following treatment with a Ketamine.
The BNA pattern of FIGS. 10A, 10C, 10E and 10G were constructed from the data acquired during the time at which the cue was presented and are recognized by the present inventor as containing information pertaining to the memorization process in the brain (also known in the literature as “encoding”). The BNA patterns of FIGS. 10B, 10D, 10F and 10H were constructed from the data acquired during the time at which the probe was presented, and are recognized by the present inventor as containing information pertaining to the retrieval process in the brain. It is noted that the BNA patterns of FIGS. 10A-H describe differentiating activity networks. Thus, for example, the BNA pattern of FIG. 10A describes the brain activity during cue that most differentiated between placebo A and Scopolamine, and the BNA pattern of […] describes the brain activity during cue that most differentiated between placebo B and Ketamine.

[1] = system: healthy volunteer subjects; experiment: BNA pattern similarity from EEG data of healthy volunteers during an attention-related oddball task after scopolamine; clinical behavioral endpoint; settings: for BNA pattern similarity to baseline BNA pattern of healthy subjects following placebo: following scopolamine
From the text: FIGS. 8A-D show associated subject-specific BNA patterns constructed from EEG data recorded from two healthy volunteer subjects. The black dots in FIGS. 8A-D show the locations of the EEG electrodes, and the color codes in these BNA patterns are the same as defined above. The subject-specific BNA patterns shown in FIGS. 8A-D describe the association of the subjects to a group of healthy subjects following treatment with a placebo drug and while performing an attention task related oddball task.
FIGS. 8A and 8C are subject-specific BNA patterns constructed from EEG data collected from a first subject (FIG. 8A) and a second subject (FIG. 8C) following treatment with a placebo, and FIGS. 8B and 8D are subject-specific BNA patterns constructed from EEG data collected from the first subject (FIG. 8B) and the second subject (FIG. 8D) following treatment with a scopolamine drug. Scopolamine is an anticholinergic drug with inhibitory effect on M2-cholinergic receptors of excited type. It has an inhibitory effect on the cerebral cortex, typically inducing slight-anesthetic effect.
A BNA pattern similarity was calculated for each of the subject-specific BNA patterns shown in FIGS. 8A-D. The calculated similarities are 0.937, 0.079, 1.0 and 0.94, respectively. It is recognized by the present inventors that these similarity values indicate that the responsivity to scopolamine is high for the first subject (FIGS. 8A and 8B) and low for the second subject (FIGS. 8C and 8D).

healthy volunteers = experiment: Scopolamine induced cognitive impairment model: ΔBNA scores in Auditory Oddball Task against SEM of the normative database; settings: scopolamine 0.4 mg, Novel stimulus, connectivity score; only 2 patients receiving placebo
From the text: The task chosen for this study was the Auditory Oddball Task, but other tasks are not excluded from the scope of the present invention. FIG. 21 is a schematic representation of an Auditory Oddball Task used in this study. The task included 600 repetitive 1000 ms auditory stimulations of which 80% were 2000 Hz stimuli (Frequent—blue circles), 10% were 1000 Hz stimuli requiring a motor response (Target—red circles) and 10% were rare non-targets composed of various sounds (Novel—yellow star). The stimuli were separated by 1500 ms intervals. The sound was delivered through a headset at a sound pressure level of 70 dB.
A pharmacological model study included 13 healthy volunteers of both genders, Aged 18-45. The volunteers were subjected to 3 Consecutive BNA sessions were, 1 week apart. A first session was used as a baseline, one of the two other sessions included administration of scopolamine (0.4 mg), and the other of the two other sessions included administration of placebo. The second and third sessions were at random order, double blind. ΔBNA Score values (Baseline—Placebo and Baseline—Drug) were evaluated against SEM values.
Shown are Plots of the ΔBNA (Baseline—treatment) connectivity score values for the Novel response. Each symbol is a single subject, tested once following Drug and once following Placebo. […]

Row | SMILES | BNA pattern similarity to the group of untreated ADHD subjects (ADHD subject; different ADHD subject (FIG. 7B), following treatment with MPH, 0 before treatment) | BNA pattern similarity to the group of ADHD subjects treated with MPH (ADHD subject; different ADHD subject (FIG. 7D), following treatment with MPH, 0.06 before treatment) | responsiveness of the subject to the treatment as indicated by similarity values (ADHD subject; different ADHD subject (FIGS. 7A-D)) | BNA pattern similarity to the baseline BNA pattern for untreated ADHD group (ADHD subject; first ADHD subject (FIG. 6B), following single dose treatment with MPH, 0.73 before treatment) | BNA pattern similarity to the baseline BNA pattern for the treated ADHD group (ADHD subject; first ADHD subject (FIG. 6D), following single dose treatment with MPH, 0.56 before treatment) | responsiveness of the subject to the treatment as indicated by similarity values (ADHD subject; first ADHD subject (FIGS. 6A-D)) | effect on central and frontal activation in group BNA pattern (groups of subjects) | effect on fronto-parietal part / connectivity of group BNA pattern (groups of subjects) | effect on right lateralization in group BNA pattern (groups of subjects) | BNA pattern similarity to baseline BNA pattern of healthy subjects following placebo ([1]; first subject (FIG. 8B), 0.937 following placebo) | responsivity to scopolamine as indicated by similarity values ([1]; first subject (FIGS. 8A and 8B)) | decrease in behavioral endpoint (clinical observations) ([1]; first subject, following treatment with scopolamine) | BNA pattern similarity to baseline BNA pattern of healthy subjects following placebo ([1]; second subject (FIG. 8D), 1.0 following placebo) | responsivity to scopolamine as indicated by similarity values ([1]; second subject (FIGS. 8C and 8D)) | change in behavioral endpoint (clinical observations) ([1]; second subject, following treatment with scopolamine) | patients with post-treatment BNA scores more than 2 SEM lower than the baseline score (healthy volunteers)
1 | COC(=O)C(c1ccccc1)C1CCCCN1 (stereo not drawn) [MPH, methylphenidate] | 0 | 0 | not responsive to the treatment | 0.19 | 0.6 | responsive to the treatment | – | – | – | – | – | – | – | – | – | –
2 | CNC1(c2ccccc2Cl)CCCCC1=O (stereo not drawn) [ketamine] | – | – | – | – | – | – | increased central and frontal activation | No significant change in the fronto-parietal part of the BNA pattern | decreased right lateralization | – | – | – | – | – | – | –
3 | CN1[C@@H]2C[C@@H](OC(=O)[C@H](CO)c3ccccc3)C[C@H]1[C@@H]1O[C@@H]12 [scopolamine] | – | – | – | – | – | – | extensive compensatory central and frontal activation | low connectivity between frontal and parietal regions | – | 0.079 | high | 70% | 0.94 | low | no change in behavioral endpoint | Eight out of 13
